The structures appear in SMILES notation.

Among the data in patent US20080287472A1 (priority 2002, published 2008) are melting point and control of disease values, retold here.

For data set [1], the system named is Erysiphe graminis f.sp. hordei (barley powdery mildew). The settings on record: in vivo.
Data set [2] relates to Pyricularia oryzae (rice blast). The format is in vivo. The settings on record: 200 ppm, rice leaf segments, sprayed before inoculation, assessed four days after inoculation.
Data set [3] relates to Erysiphe graminis f.sp. tritici (wheat powdery mildew). The settings on record: in vivo.

`CCC(C)Nc1nc2ncncc2c(Cl)c1-c1c(F)cc(F)cc1F` (stereo not shown) displayed a melting point of 179 °C.

Consider `CC(C)Nc1c(-c2c(F)cc(F)cc2F)c(Cl)nc2cncnc12` [Compound 3 (1), [6-chloro-7-(2,4,6-trifluorophenyl)-pyrido[3,2-d]pyrimidin-8-yl]-isopropylamine], for which the control of disease entry in data set [1], in data set [2] and in data set [3] was “greater than 60%” in each case.

By melting point is commonly meant the temperature, or range, at which the solid turns liquid.
